Test system: spontaneous respiration in male guinea pigs
Test: Analeptic respiratory activity after morphine depression
Type: in vivo
Settings: 20 mg/kg intravenously; reference; before morphine 58, 20 minutes after morphine 29
Protocol: The spontaneous respiration in male guinea pigs, weighing 400-600 g, which have been anaesthetized, is recorded by means of a tracheal probe connected to an electronic recorder.
In a first stage, the respiration is depressed by an intravenous injection of 10 mg/kg of morphine. In a second stage, 20 minutes after the morphine, the product to be studied is injected intravenously.
The respiratory rhythm is recorded before the injection of morphine, and before and 1 minute after the injection of the product to be studied.

Cn1c(=O)c2[nH]cnc2n(C)c1=O [theophylline]
respiratory rhythm 1 minute after administration of the product: 47 pulsations/minute
